Molecular target: T1, KdpFABC (nucleotide / vanadate rows, site in KdpB) (Escherichia coli, UniProt P03960, D307N)
T1 construct: heterotetrameric complex, His-tagged KdpC, pBXC3H vector, produced in E. coli LB2003 (lacks endogenous K+ uptake systems), purified; Potassium-transporting ATPase KdpC subunit; Potassium-transporting ATPase KdpF subunit
Test: cryo-EM structure, […] Å
Type: binding
Details: 5 mM AMPPCP, 50 mM KCl; between N and P domains of KdpB, E1·ATP state

T1 sequence (P03960 whole entry D307N): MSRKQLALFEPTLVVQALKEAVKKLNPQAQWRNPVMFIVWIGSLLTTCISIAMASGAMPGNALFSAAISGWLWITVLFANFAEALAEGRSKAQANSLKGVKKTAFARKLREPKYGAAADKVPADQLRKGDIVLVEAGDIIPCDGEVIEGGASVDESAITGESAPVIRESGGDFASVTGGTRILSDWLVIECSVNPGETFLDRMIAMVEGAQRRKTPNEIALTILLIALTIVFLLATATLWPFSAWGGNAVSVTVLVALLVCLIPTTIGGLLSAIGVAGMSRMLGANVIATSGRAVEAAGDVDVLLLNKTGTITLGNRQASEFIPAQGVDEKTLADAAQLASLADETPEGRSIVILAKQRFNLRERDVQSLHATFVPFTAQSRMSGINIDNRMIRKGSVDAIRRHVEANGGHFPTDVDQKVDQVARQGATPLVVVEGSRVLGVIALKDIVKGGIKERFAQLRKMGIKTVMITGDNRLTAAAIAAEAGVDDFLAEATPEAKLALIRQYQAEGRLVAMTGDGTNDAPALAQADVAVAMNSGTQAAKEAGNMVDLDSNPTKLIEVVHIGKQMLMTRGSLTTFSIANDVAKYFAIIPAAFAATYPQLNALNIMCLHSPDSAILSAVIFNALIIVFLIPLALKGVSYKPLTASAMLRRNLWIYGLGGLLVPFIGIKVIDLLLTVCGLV
T1 sequence (P03959 whole entry partner): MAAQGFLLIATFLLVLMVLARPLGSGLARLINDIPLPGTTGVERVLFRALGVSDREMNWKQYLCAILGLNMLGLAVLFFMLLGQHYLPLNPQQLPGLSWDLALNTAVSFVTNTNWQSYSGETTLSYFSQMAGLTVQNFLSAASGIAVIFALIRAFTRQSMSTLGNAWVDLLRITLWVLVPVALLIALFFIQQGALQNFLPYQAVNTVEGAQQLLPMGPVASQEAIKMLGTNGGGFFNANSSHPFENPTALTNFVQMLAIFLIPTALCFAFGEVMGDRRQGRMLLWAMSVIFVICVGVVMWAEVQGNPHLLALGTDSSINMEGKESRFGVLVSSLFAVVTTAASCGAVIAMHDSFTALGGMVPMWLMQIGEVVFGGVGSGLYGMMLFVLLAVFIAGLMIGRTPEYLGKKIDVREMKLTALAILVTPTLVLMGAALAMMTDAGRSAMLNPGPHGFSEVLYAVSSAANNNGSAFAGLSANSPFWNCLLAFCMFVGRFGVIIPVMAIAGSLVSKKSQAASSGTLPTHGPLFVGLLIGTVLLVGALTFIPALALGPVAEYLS
T1 sequence (P03961 whole entry partner): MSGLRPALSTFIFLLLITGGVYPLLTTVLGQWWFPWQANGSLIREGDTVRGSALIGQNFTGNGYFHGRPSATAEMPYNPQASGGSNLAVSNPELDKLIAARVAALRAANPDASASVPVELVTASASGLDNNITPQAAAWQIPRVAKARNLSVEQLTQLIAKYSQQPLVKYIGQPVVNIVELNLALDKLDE
T1 sequence (P36937 whole entry partner): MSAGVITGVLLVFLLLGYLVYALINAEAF

Nc1ncnc2c1ncn2[C@@H]1O[C@H](COP(=O)(O)OP(=O)(O)CP(=O)(O)O)[C@@H](O)[C@H]1O [AMPPCP]
cryo-EM structure, 3.1 Å: The nucleotide AMPPCP is coordinated between the N and P domains
